From patent US6348460B1 (priority 1997, dated 2002)

With `Cc1ccc(N(SN2CCOCC2)C(=O)c2snnc2C)cc1` [b183, 4-methyl-N-(4-methylphenyl)-N-morpholinothio-1,2,3-thiadiazole-5-carboxamide] the melting point was 60 °C (dec.).
With `Cc1nnsc1C(=O)NS(C)(=O)=O` the melting point was 165 °C.
